Measurements as given in US8343934B2, “Diverse lead compound autotaxin inhibitors” (University of Memphis, priority 2009, dated 2013).
Where a SMILES comes first, the peptide text is derived from it. [ ]: non-standard residue; d: D form. Phe(4-Cl) = N[CH](Cc1ccc(Cl)cc1)C(=O)O; 3Pal = N[CH](Cc1cccnc1)C(=O)O

Target: T1, ATX (Homo sapiens, UniProt Q13822)
T1 construct: conditioned serum-free medium (CCM) from MDA-MB-435 cells as the source of ATX; endogenous in cells; host or cells: MDA-MB-435 cells (about 10x concentrated conditioned serum-free medium)
Assay: ATX inhibition assay (FS-3 substrate)
Assay type: biochemical
Conditions: for % Response: preliminary screen, FS-3 hydrolysis at one hour, normalized to vehicle control, mean±S.D., same values given at 10 μM in Table 5; for IC50: Calculated IC50 data for the 30 active compounds, FS-3 substrate
Summary of the method: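 Conditioned serum-free medium from MDA-MB-435 cells served as the ATX source. FS-3 hydrolysis was followed by fluorescence (ex 485/em 528 nm) at 37 °C, read every minute, in Tris pH 8.0 buffer with Ca2+, Mg2+ and 30 μM fatty-acid-free BSA. Readings were blank-subtracted without medium and normalized to vehicle.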

% Response [%] | IC50 [µM] | SMILES
62 ± 2.8 | – | COc1cc(-c2ccc(N=Nc3c(S(=O)(=O)O)cc4cc(S(=O)(=O)O)c(N=Nc5ccc([N+](=O)[O-])cc5)c(N)c4c3O)c(OC)c2)ccc1N=Nc1ccc(N)cc1C.[Na+] [compound 79737]
36 ± 2.5 | 7.04 | Nc1ccc(N=Nc2ccc(-c3ccc(N=Nc4c(S(=O)(=O)[O-])cc5cc(S(=O)(=O)[O-])c(N=Nc6cccc([N+](=O)[O-])c6)c(N)c5c4O)cc3)cc2)c2cc(S(=O)(=O)[O-])ccc12.[Na+].[Na+].[Na+] [compound 79742]
39 ± 2.7 | 8.33 | Nc1ccc(N=Nc2ccc(-c3ccc(N=Nc4c(S(=O)(=O)[O-])cc5cc(S(=O)(=O)[O-])c(N=Nc6ccc([N+](=O)[O-])cc6)c(N)c5c4O)cc3)cc2)c2cc(S(=O)(=O)[O-])ccc12.[Na+].[Na+].[Na+] [compound 79743]
35 ± 2.9 | 11.5 | Nc1ccc2cc(S(=O)(=O)[O-])c(N=Nc3ccc(-c4ccc(N=Nc5c(S(=O)(=O)[O-])cc6cc(S(=O)(=O)[O-])c(N=Nc7cccc([N+](=O)[O-])c7)c(N)c6c5O)cc4)cc3)c(O)c2c1.[Na+].[Na+].[Na+] [compound 79744]
73 ± 4.5 | – | Cc1ccccc1N=C(N)Nc1ccccc1C.Nc1c(N=Nc2ccc([N+](=O)[O-])cc2)c(S(=O)(=O)O)cc2cc(S(=O)(=O)O)c(N=Nc3ccc(Sc4ccc(N=Nc5ccc(O)cc5)cc4)cc3)c(O)c12 [compound 80902]
32 ± 2.6 | 5.88 | Cc1c(N)cc(S(=O)(=O)O)c(N=Nc2ccc(-c3ccc(N=Nc4c(S(=O)(=O)O)cc5cc(S(=O)(=O)O)c(N=Nc6cccc([N+](=O)[O-])c6)c(N)c5c4O)cc3)cc2)c1N.[Na+] [compound 80903]
62 ± 2.5 | – | O=C(/C=C\c1ccc(NCc2ccc(C(=O)O)cc2)cc1)CCl [compound 106024]
95 ± 4.3 | – | O=C(COc1ccc(Cl)cc1C(=O)O)NCc1cccc(NC(=O)Nc2ccc(S(=O)(=O)F)cc2)c1 [compound 212086]
97 ± 2.4 | – | CCCCCCCCCCCCCCCCOc1ccc(S(=O)(=O)N/N=c2/sc3ccc(S(=O)(=O)O)cc3n2C)cc1C(=O)O [compound 270069]
94 ± 3.6 | – | COc1nc(Nc2ccc(/C=C/c3ccc(Nc4nc(OC)nc(N(CCO)CCO)n4)cc3S(=O)(=O)[O-])c(S(=O)(=O)[O-])c2)nc(N(CCO)CCO)n1.[Na+].[Na+] [compound 306423]
96 ± 3.7 | – | O=C(/C=C/c1ccc(O)c(O)c1)NCC(=O)NC(Cc1ccccc1)C(=O)O (centres unmarked) [compound 332542]
24 ± 2.9 | 7.96 | O=C(O)c1ccc(C(=O)NCCCN(CCCCN(CCCNC(=O)c2ccc(C(=O)O)c(O)c2O)C(=O)c2ccc(C(=O)O)c(O)c2O)C(=O)c2ccc(C(=O)O)c(O)c2O)c(O)c1O.[Na+] [compound 338310]
43 ± 2.8 | 2.5 | CC(C)(C)OC(=O)NC(CC(Cc1ccccc1)C(=O)O)C(=O)NC(CC(Cc1ccccc1)C(=O)O)C(=O)NC(CC(Cc1ccccc1)C(=O)O)C(=O)NCC(=O)Oc1ccc([N+](=O)[O-])cc1 (centres unmarked) [compound 341348]
96 ± 2.5 | – | CC(=O)NC(Cc1ccc(Cl)cc1)C(=O)NC(Cc1ccc(Cl)cc1)C(=O)NC(Cc1cccnc1)C(=O)NC(CO)C(=O)NC(Cc1ccc(O)cc1)C(=O)NC(CCCN=C(N)N)C(=O)NC(CC(C)C)C(=O)NC(CCCN=C(N)N)C(=O)N1CCCC1C(=O)NC(C)C(=O)O (centres unmarked) [compound 373963] (Ac-[Phe(4-Cl)][Phe(4-Cl)][3Pal]SYRLRPA-OH; configuration not given here)
